Measured values from ChEMBL document CHEMBL1135051, “N-arylalkylpiperidines as high-affinity sigma-1 and sigma-2 receptor ligands: phenylpropylamines as potential leads for selective sigma-2 agents” (Bioorg Med Chem Lett, 2002).

Assays:
Sigma 2 receptor = assay: Binding affinity for sigma-2 receptor by displacing [3H]DTG in presence of dextrallorphan; design: species or system Rattus norvegicus
[1] = molecular target: Sigma non-opioid intracellular receptor 1 (Rattus norvegicus, UniProt Q9R0C9); assay: Binding affinity for sigma-1 receptor by displacing [3H]-(+) pentazocine
Sigma non-opioid intracellular receptor 1, sequence (Q9R0C9 whole entry): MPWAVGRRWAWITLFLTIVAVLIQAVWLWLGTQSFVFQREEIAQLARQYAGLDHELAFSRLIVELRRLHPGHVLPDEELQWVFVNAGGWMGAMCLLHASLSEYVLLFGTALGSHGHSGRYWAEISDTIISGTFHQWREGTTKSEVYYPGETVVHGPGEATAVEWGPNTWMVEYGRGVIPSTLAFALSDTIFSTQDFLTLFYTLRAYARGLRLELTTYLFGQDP

| Structure (SMILES) | Ki (Sigma 2 receptor) | Ki [1] |
| --- | --- | --- |
| c1ccc(CCN2CCN(c3ccccn3)CC2)cc1 | 0.119 µM | 0.326 µM |
| CC1CCCN(CCc2ccccc2)C1 (stereo not given) | 0.0844 µM | 0.00415 µM |
| c1ccc(CCN2CCc3ccccc3C2)cc1 | 0.0573 µM | 0.0059 µM |
| CC1CCN(CCc2ccccc2)CC1 | 0.0333 µM | 0.0209 µM |
| c1ccc(CCN2CCCCC2)cc1 [1-PHENETHYLPIPERIDINE] | 0.112 µM | 0.0885 µM |

These reach a lower Ki (Sigma 2 receptor). Values come first.

| Ki (Sigma 2 receptor) | Ki [1] | Structure (SMILES) |
| --- | --- | --- |
| 0.00491 µM | 0.0829 µM | c1ccc(CCCN2CCN(c3ccccn3)CC2)cc1 |
| 0.0142 µM | 0.0139 µM | c1ccc(CCCN2CCc3ccccc3C2)cc1 |
| 0.00661 µM | 0.00525 µM | CC1CCCN(CCCc2ccccc2)C1 (stereo not given) |
| 0.025 µM | 0.143 µM | c1ccc(CCCN2CCCCC2)cc1 |
| 0.0121 µM | 0.00335 µM | CC1CCN(CCCc2ccccc2)CC1 |
